Experimental data as given in patent US20250235501A1, “Methods and Compositions for Treating or Preventing Neurological Injury or Neurological Disorders” (University of Connecticut, priority 2024, published 2025).

What was measured:
[1] = tested on: NMDARs (GluN1a, GluN2a, GluN2b); test: Surface expression of NMDARs in HEK293T cells co-transfected with NMDARs and TRPM2 (WB); type: cell-based, human; conditions: 1 μM compound overnight
Procedure: FIGS. 4K-4N show the surface expression of NMDARs in HEK-293T cells co-transfected with TRPM2 or EGFP with the treatment of PKC activator PMA (FIG. 4K) and inhibitor Stausporine (FIG. 4L). Membrane (Mem) and cytocol (Cyto) NMDARs were analyzed and averaged from 3 independent experiments with 1 μM PMA treatment (FIG. 4N) or 1 μM Stausporine treatment (FIG. 4L) for overnight. Pan-cadherin and β-tubulin were loading controls for membrane and cytosol protein, respectively (*, p<0.05, **, p<0.01, ***, p<0.001, unpaired t-test, mean±SEM, n=3/group).
FIGS. 5C-5F effects of TAT-EE3 on surface expression of NMDARs. HEK293T cells co-transfected with NMDARs with TRPM2 (+M2) or EGFP vector (Con) were treated with 10 μM TAT-SC (FIG. 5C) or TAT-EE3 (FIG. 5D) overnight. Membrane (Mem) and cytosol (Cyto) proteins of NMDARs in TAT-SC (FIG. 5E) and TAT-EE3 (FIG. 5F) treated groups were assessed by WBs and analyzed in reference to Pan-cadherin or β-tubulin (**, p<0.01, ***, p<0.001, unpaired t-test, mean±SEM). All the results were replicated in at least 3 independent experiments.
Pan-cadherin and β-tubulin were used as loading control for membrane and cytosolic protein extraction.
were ordered from GenScript Biotech, and dissolved in PBS to make a stock concentration at 10 mM. HEK-293T cells or isolated neurons were treated with TAT-SC or TAT-EE3 at a concentration of 10 μM for at least 8 h prior to use. Mice were injected with TAT-SC or TAT-EE3 intraperitoneally (ip) at a dose of 100 nmol/kg.
HEK293T cells were cultured in Dulbecco's Modified Eagle's medium (DMEM) (Thermal Fisher Scientific, 12100-038) supplemented with 10% BGS (HyClone, SH30541.03) and 0.5% penicillin/streptomycin (Thermal Fisher Scientific, 15140-122) at 37° C. and 5% CO2. 8 h prior to transfection, culture medium was replaced with DMEM supplemented only with 2.5% BGS. Cells were transfected when at a confluence about 80-90% using Lipofectamine® 3000 Transfection Kit (Thermal Fisher Scientific, 2232162) based on instruction.
NP-40/Triton lysis buffer ([…], 1% Triton™ X-100, 150 mM NaCl, 1 mM EDTA, 50 mM Tris, pH=8.0) containing proteinase inhibitors and phosphatase inhibitors was used to lyse both cultured cells and frozen brain tissue. Surface protein was extracted using Pierce® Cell Surface Protein Isolation Kit (Thermal Fisher Scientific, 89881) in transfected HEK-293T cells, and using ProteoExtract™ Native Membrane Protein Extraction Kit (Calbiochem, 444810) in brain tissue based on instructions. […] Protein concentration was measured using Pierce™ Rapid Gold BCA Protein Assay Kit.
30-50 μg of total protein was loaded and separated proteins were transferred to Nitrocellulose membranes. […] Band intensity was quantified using ImageJ software and normalized with appropriate loading controls.

[2] = tested on: NMDARs; test: NMDAR currents in cultured cortical neurons of WT and TRPM2-KO mice (whole cell recording); type: cell-based, mouse; conditions: for NMDAR current amplitude in WT neurons: 1 μM compound overnight, 10 μM NMDA, -80 mV, compared with TRPM2-KO neurons
Procedure: FIGS. 4O and 4P show the effects of stausporine on NMDAR currents recorded from cortical neurons cultured for 14 days. FIG. 4O show representative NMDAR currents elicited at −80 mV by 10 μM NMDA in WT and TRPM2-KO (gM2KO) neurons treated with or without Stausporine at 1 μM for overnight. FIG. 4P show the average current amplitude (ns, p>0.05; **, p<0.01; ANOVA, Bonferroni's test; mean±SEM, n=11, 10, 10, 12 neurons from 2 mice respectively).
FIG. 4S show representative NMDAR currents elicited by NMDA in WT and TRPM2-KO neurons treated with or without endosidin2 at 1 μM for overnight.
FIGS. 5I-5K show the effects of TAT-EE3 on PKC induced changes of NMDAR currents recorded in cortical neurons of WT and TRPM2-KO. Neurons were incubated with 10 μM TAT-SC or TAT-EE3 for overnight before current recording. FIG. 5I show representative NMDAR currents elicited by 10 μM NMDA at −80 mV before and after PMA (1 μM) perfusion for 20 s. TAT-SC or TAT-EE3 10 μM was included in the pipette solution for current recording.
FIGS. 6A and 6B show the effects of TAT-EE3 on NMDAR currents in WT and gM2KO cortical neurons cultured for 14 days. […] TAT-SC or TAT-EE3 10 μM was included in the pipette solution during current recording.
Mice pups at P0 were euthanized based on animal protocol. Whole brain was dissected out immediately and immersed in ice-cold Hank's Balanced Salt Solution (HBSS). Meninges were removed thoroughly, and tissue of different brain areas was taken based on purposes. Brain tissue was cut into small pieces and digested with 0.25% trypsin (Thermal Fisher Scientific, 15090-046) in HBSS at 37° C. for 20 min. Digestion solution was quickly removed, and tissue pellets are washed with Neurobasal® Medium (Thermal Fisher Scientific, 21103-049) for 3 times. Cells were resuspended with appropriate amount of Neurobasal® Medium supplemented with 2% B27® supplement (Thermal Fisher Scientific, 17504-044), 3% horse serum (Thermal Fisher Scientific, 16050114), 0.25% L-glutamine (Thermal Fisher Scientific, 25030-081) and 1% penicillin/streptomycin (Thermal Fisher Scientific, 15140-122). Isolated cells were counted and plated on coverslips pre-coated with poly-L-lysine (Sigma-Aldrich, P4707) at a density about 500×10^3 cells/cm2 for OGD and H2O2 treatment, and 100×10^3 cells/cm2 for current recording. Cytosine arabinoside (Sigma-Aldrich, C1768) was added to maintain a concentration at 1 μM to inhibit the proliferation of non-neuronal cells. 24 h after plating, culture medium was changed to Neurobasal® Medium supplemented with 2% B27® supplement, 0.25% L-glutamine and 1% penicillin/streptomycin. The concentration of Cytosine arabinoside (araC) was increased to 2 μM. Medium was changed every 3 days. OGD and H2O2 treatment was conducted at 7th day of culture, and current recording was conducted at 7th, 10th and 14th day of culture.
Whole cell currents were recorded using an Axopatch 200B amplifier. Data were digitized at 10 or 20 kHz and digitally filtered offline at 1 kHz. Patch electrodes were pulled from borosilicate glass and fire-polished to a resistance of ˜3 MΩ when filled with internal solutions. Series resistance (Rs) was compensated up to 90% to reduce series resistance errors to <5 mV. Cells in which Rs was >10 MΩ were discarded (Du, J., Xie, J., and Yue, L. (2009). Modulation of TRPM2 by acidic pH and the underlying mechanisms for pH sensitivity. J Gen Physiol 134, 471-88).
For heterologous expression, transfected HEK-293 cells were identified by GFP fluorescence. TRPM2 current recording in transfected HEK-293T cells was performed as we previously reported (Du, J., Xie, J., and Yue, L. (2009). Intracellular calcium activates TRPM2 and its alternative spliced isoforms. Proceedings of the National Academy of Sciences 107, 7239-44; Du, J., Xie, J., and Yue, L. (2009). Modulation of TRPM2 by acidic pH and the underlying mechanisms for pH sensitivity. J Gen Physiol 134, 471-88). […]

In the case of `COc1cc(/C=N/NC(=O)c2cccc(F)c2)cc(I)c1O` [Endosidin 2, reference compound], the “surface expression level of NMDARs in cells transfected with NMDARs and TRPM2” value (from here on “surface expression level of NMDARs”) [1] is reported as “prevented the increase” and the “NMDAR current amplitude in WT neurons” value [2] is reported as “abolished the increased current amplitude”.

In the case of `CCCCCCCCCCCCCC(=O)O[C@@H]1[C@@H](C)[C@@]2(O)[C@@H](C=C(CO)C[C@]3(O)C(=O)C(C)=C[C@@H]23)[C@@H]2C(C)(C)[C@]12OC(C)=O` [PMA, Phorbol-12-myristate-13-acetate, reference compound], the “surface expression level of NMDARs” value [1] is reported as “much higher level of surface NMDARs”, the “increase of NMDA-induced current by PMA” value ([2]; WT neurons, PMA 1 μM perfusion for 20 s) is reported as “about 1.5 fold” and the “NMDA-induced current after PMA perfusion” value ([2]; WT neurons, PMA 1 μM perfusion for 20 s, before PMA 1542.1±117.1 pA) is reported as 3642.1±180.8 pA.

For `CN[C@@H]1C[C@H]2O[C@@](C)([C@@H]1OC)n1c3ccccc3c3c4c(c5c6ccccc6n2c5c31)C(=O)NC4` [stausporine, reference compound], the “surface expression level of NMDARs” value [1] was “abolished the enhanced surface expression level” and the “NMDAR current amplitude in WT neurons” value [2] was “normalized NMDAR current amplitude in the WT neuron to the similar amplitude level of NMDAR current in TRPM2-KO neurons”.
